Source: PMC8838631, “Pistacia lentiscus L. Distilled Leaves as a Potential Cosmeceutical Ingredient: Phytochemical Characterization, Transdermal Diffusion, and Anti-Elastase and Anti-Tyrosinase Activities” (Molecules, 2022)
Values after ≈ are worked out from the molar mass of the structure shown. Read-outs that look alike come from different tables or passages of the source.

Legend:
mushroom tyrosinase = assay: Tyrosinase inhibition assay (L-DOPA substrate); assay type: biochemical; conditions: for Tyrosinase activity (% of control): at a concentration of 100 µg/mL; for IC50 of tyrosinase activity: L-DOPA
Experimental: EAE and its pure molecules FC and FM2 were evaluated in vitro for their tyrosinase inhibition activity.
The inhibitory effect of our samples on the mushroom tyrosinase enzyme was analyzed using the substrate L-DOPA [71]. The extract and the pure molecules were evaluated at concentrations ranging between 12 and 200 µg/mL. […] The tyrosinase inhibition was measured as follows:% Tyrosinase inhibition = (ODcontrol − ODsample)/ODcontrol × 100(2)

[1] = Transdermal diffusion, Franz diffusion cell with strat-M membrane; assay type: in vitro ADME; conditions: 5% EAE-hydro-cream, 24 h of incubation; for µg of Crossed Molecule/g of 5% Hydro-cream: strat-M membrane, 37 °C, mean ± SD (n = 9)
Experimental: The transdermal diffusion of 5% EAE-hydro-cream formulation was evaluated using Franz diffusion cell and start-M membrane. […] The receptor medium of the Franz cell was analyzed by HPLC-MS to determine the bioactive compounds that crossed the strat-M membrane after 24 h of incubation. […] The bioactive molecules FC and FM2 that crossed the strat-M membrane were subjected to quantification. […] Moreover, FC has crossed the membrane but with a lower concentration than FM2 (Table 4).
Transdermal diffusion was evaluated using a Franz diffusion cell system, as mentioned by Chuang et al. with certain modifications. Firstly, the start-M membrane, a model membrane for transdermal diffusion, was mounted in a Franz diffusion cell. Then, 5 mL of 0.1 M sodium phosphate buffer (PBS) and 1 g of extract formulation cream were placed in the receptor and the donor compartments, respectively. The extract formulation cream was prepared by mixing the hydro-cream base emulsion purchased from Galderma and the EAE at 5% (w/w) by a mechanical stirrer (VMI Rayneri, Francelab, Paris, France). The receptor medium of the Franz cell was maintained at 37 °C and stirred with a magnetic stirrer at 400 rpm. After 24 h, the receptor medium was recovered, evaporated, freeze-dried, and then 4 mL of MeOH was added. The sample was filtered through a 0.45 filter and analyzed by HPLC-MS to determine the bioactive molecules that were released from the start-M membrane. The bioactive molecules that crossed the start-M membrane were then quantified, as described in Section 4.4.6, by injecting the receptor medium through HPLC-DAD at a concentration of 10 mg/mL. Results were expressed as µg of molecule crossed the membrane/g of 5% EAE-hydro-cream.

[2] = molecular target: porcine pancreatic elastase (Sus scrofa, UniProt P00772); assay: Elastase inhibition assay (N-succinyl-Ala-Ala-Ala-p-nitroanilide substrate); assay type: biochemical; conditions: for remaining activity at 100 µg/mL: read-out: Elastase activity (% of control)
Chain of porcine pancreatic elastase (P00772 27-266): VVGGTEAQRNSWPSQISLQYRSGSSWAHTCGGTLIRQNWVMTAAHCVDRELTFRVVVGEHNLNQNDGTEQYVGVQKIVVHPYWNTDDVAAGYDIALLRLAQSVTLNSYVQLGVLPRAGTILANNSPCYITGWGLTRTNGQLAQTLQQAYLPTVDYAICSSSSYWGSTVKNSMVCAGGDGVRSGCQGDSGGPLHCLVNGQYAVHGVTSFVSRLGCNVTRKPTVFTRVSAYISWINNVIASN
Experimental: The elastase inhibition activity of EAE and its pure molecules FC and FM2 was evaluated at different concentrations ranging from 12 to 100 µg/mL. […] At a concentration of 100 µg/mL, the percentages of elastase activity with EAE, FC, and FM2 were equal to 12%, 42%, and 29%, respectively. Besides, the percentage of elastase activity with Epigallocatechin gallate was 8%.
The elastase inhibitory effect of our samples was evaluated as described by Angelis et al., using the enzyme porcine pancreatic elastase and the substrate N-succinyl-Ala-Ala-Ala-p-nitroanilide. The extract and the pure molecules were evaluated at concentrations ranging between 12 and 100 µg/mL. Epigallocatechin gallate was used as a positive control. The elastase inhibition was measured using Equation (3):% Elastase inhibition = (ODcontrol − ODsample) ODcontrol × 100(3)

[3] = Cell viability / cytotoxicity, MTT assay; conditions: mouse
Experimental: (§1) The cell viability of EAE and the two major isolated molecules FC and FM2 were evaluated against B16 cells.
(§2) B16 cells (C57BL/6, Resource No. RBRC-RCB0557) used in this study were prepared as described by Elloumi et al..
(§3) The MTT assay was performed to evaluate the cytotoxicity effect of our samples on B16 cells. Different sample concentrations (2.5–80 µg/mL) were applied to the Cells. The […] was measured as follows:% Cell viability = (ODsample/ODcontrol) × 100(4)

B16 cells = assay: Cell viability / cytotoxicity, MTT assay; conditions: B16 cells, MTT; viability above 70% considered non-toxic (ISO 10993-5)
Experimental: as §1, §2, §3

[4] = molecular target: T1, cellular tyrosinase in B16 cells (Mus musculus, UniProt P11344); assay: Cellular tyrosinase activity assay on B16 cells; assay type: cell-based
T1 sequence (P11344 19-533): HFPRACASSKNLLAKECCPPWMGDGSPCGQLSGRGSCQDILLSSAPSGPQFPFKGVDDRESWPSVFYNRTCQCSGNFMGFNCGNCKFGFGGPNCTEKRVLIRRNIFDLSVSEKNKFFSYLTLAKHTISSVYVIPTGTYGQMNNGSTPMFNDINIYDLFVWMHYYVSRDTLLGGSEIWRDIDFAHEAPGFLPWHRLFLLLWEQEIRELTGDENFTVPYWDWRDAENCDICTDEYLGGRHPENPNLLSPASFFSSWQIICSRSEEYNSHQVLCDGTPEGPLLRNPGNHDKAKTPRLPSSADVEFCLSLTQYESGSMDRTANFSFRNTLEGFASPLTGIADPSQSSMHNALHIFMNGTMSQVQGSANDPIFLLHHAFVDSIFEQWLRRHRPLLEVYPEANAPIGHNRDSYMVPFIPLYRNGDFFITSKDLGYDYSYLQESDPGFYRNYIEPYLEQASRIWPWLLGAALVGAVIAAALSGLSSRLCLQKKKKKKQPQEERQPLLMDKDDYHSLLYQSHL
Experimental: The cellular tyrosinase inhibition activity on B16 cells was evaluated using EAE, FC, and FM2.
as §2
The cellular tyrosinase activity on B16 cells was evaluated as described by Kamei et al. with some modifications. Briefly, B16 cells were incubated in a 96-well plate (25 × 10^3 cells/well) for 24 h. […] After that, the cells were washed with PBS and lysed with PBS supplemented with 1% of Triton-X/PBS, after 48 h of samples exposure. A volume of 100 µL of 0.1% L-DOPA was added to the wells for 1 h. […] The cellular tyrosinase inhibition was measured as follows:% Cellular tyrosinase inhibition = (ODcontrol − ODsample)/ODcontrol × 100(5)

[5] = DPPH radical scavenging assay
Experimental: The DPPH scavenging test was carried out using the method mentioned by Brand-Williams et al.. The percentage of DPPH scavenging was measured using Equation (1): % DPPH scavenging = (ODcontrol − ODsample)/ODcontrol × 100(1)

[6] = at a concentration of 100 µg/mL

Tyrosinase activity (% of control) (mushroom tyrosinase) [%]	Crossing of the strat-M membrane (detected in receptor medium by HPLC-MS) [1]	SMILES	µg of Crossed Molecule/g of 5% Hydro-cream [1]	IC50 of tyrosinase activity (mushroom tyrosinase) [µg/mL]	remaining activity at 100 µg/mL [2, 6] [%]	Concentration that did not decrease the percentage of cell viability (B16 cells) [ng/mL]	other results
7	–	O=c1cc(CO)occ1O [kojic acid, reference compound]	–	–	–	–	–
–	have crossed the membrane	O=c1c(O[C@@H]2O[C@H](CO)[C@H](O)[C@H](O)[C@H]2O)c(-c2ccc(O)c(O)c2)oc2cc(O)cc(O)c12 [quercetin-3-O-galactoside]	–	–	–	–	–
10	have crossed the membrane	C[C@@H]1O[C@@H](Oc2c(-c3cc(O)c(O)c(O)c3)oc3cc(O)cc(O)c3c2=O)[C@H](O)[C@H](O)[C@H]1O [FM2, myricetin-3-O-rhamnoside]	52.102 ± 0.001 µg/g of 5% hydro-cream	34	29	≤ 10000	IC50 ([2]; porcine pancreatic elastase, read-out: IC50 of elastase activity (converted)): 96.9 µM; IC50 ([3]; B16 cells): 19.3 ± 1.22 µg/mL (≈ 41.6 µM); IC50 ([4]; B16 cells, 48 h of samples exposure, read-out: Cellular tyrosinase inhibition IC50 (converted)): 9.91 µM

More lines, now with the values behind:

SMILES	Tyrosinase activity (% of control) (mushroom tyrosinase) [%]	Crossing of the strat-M membrane (detected in receptor medium by HPLC-MS) [1]	µg of Crossed Molecule/g of 5% Hydro-cream [1]	IC50 of tyrosinase activity (mushroom tyrosinase) [µg/mL]	remaining activity at 100 µg/mL [2, 6] [%]	Concentration that did not decrease the percentage of cell viability (B16 cells) [ng/mL]	other results
C[C@@H]1O[C@@H](Oc2c(-c3ccc(O)c(O)c3)oc3cc(O)cc(O)c3c2=O)[C@H](O)[C@H](O)[C@H]1O [FC, quercetin-3-O-rhamnoside]	9	have crossed the membrane	3.161 ± 0.006 µg/g of 5% hydro-cream	49	42	≤ 2500	IC50 [2]: 192 µM; IC50 [3]: 6.4 ± 0.53 µg/mL (≈ 14.3 µM); IC50 [4]: 7.49 µM
O=C(O[C@@H]1Cc2c(O)cc(O)cc2O[C@@H]1c1cc(O)c(O)c(O)c1)c1cc(O)c(O)c(O)c1 [Epigallocatechin gallate, reference compound]	–	–	–	–	–	–	Elastase activity (% of control) [2, 6]: 8%; IC50 of elastase activity ([2]; porcine pancreatic elastase): 12 µg/mL
O=C1O[C@H]([C@@H](O)CO)C(O)=C1O [Ascorbic acid]	–	–	–	–	–	–	DPPH IC50 [5]: 13.85 µg/mL
